pIC50: −log10 of the molar value. Where two headings read alike, the source gives them in different places.

This assay relates to SARS-CoV-2. It counts as cell-based, SARS-CoV-2 (BetaCoV/France/IDF0571/2020 strain). Conditions: for antiviral activity against SARS-CoV-2 (in words): single drug.

For the compound `CCOC(=O)c1c(CSc2ccccc2)n(C)c2cc(Br)c(O)c(CN(C)C)c12` [Arbidol (umifenovir)], the pIC50 (commonly the IC50 on a negative log10 scale, so that one unit is a factor of ten) was 5.45.

Regarding `COc1ccc2cc3[n+](cc2c1OC)CCc1cc2c(cc1-3)OCO2` [Berberine], the pIC50 was 4.98 and the “antiviral activity against SARS-CoV-2 (in words)” value (from here on “antiviral activity”) is reported as “dose-dependent antiviral responses”.

With `COc1ccc([C@@H]2Sc3ccccc3N(CCN(C)C)C(=O)[C@@H]2OC(C)=O)cc1` [Diltiazem], the “antiviral activity” value was “neither diltiazem nor ribavirin or favipiravir showed antiviral activity”.

For `NC(=O)c1nc(F)c[nH]c1=O` [Favipiravir, 6-fluoro-3-hydroxy-2-pyrazinecarboxamine], the “antiviral activity” value is “neither diltiazem nor ribavirin or favipiravir showed antiviral activity”.

In turn, `Cc1cccc(C)c1OCC(=O)N[C@@H](Cc1ccccc1)[C@@H](O)C[C@H](Cc1ccccc1)NC(=O)[C@H](C(C)C)N1CCCNC1=O` [Lopinavir] had a pIC50 of 5.28.

Compound `CCC(CC)COC(=O)[C@H](C)N[P@](=O)(OC[C@H]1O[C@@](C#N)(c2ccc3c(N)ncnn23)[C@H](O)[C@@H]1O)Oc1ccccc1` [Remdesivir] showed a pIC50 of 6.01. Also, the “reduction of remdesivir IC50” value (in presence of 12.5 μM berberine versus remdesivir alone) was above 2 fold. The “reduction of remdesivir IC50” value (in presence of diltiazem (11.5 μM) versus remdesivir alone) is listed as “up to 8.5 fold”.

Consider `NC(=O)c1ncn([C@@H]2O[C@H](CO)[C@@H](O)[C@H]2O)n1` [Ribavirin, 1-β-D-ribofuranosyl-1,2,4-triazole-3-carboxamide], for which the “antiviral activity” value is listed as “neither diltiazem nor ribavirin or favipiravir showed antiviral activity”.

Values taken from PMC7361110 (Antiviral Research, 2020).
